The values that follow come from ChEMBL document CHEMBL1138976, “Anti-HIV activity of stilbene-related heterocyclic compounds” (Bioorg Med Chem Lett, 2006).

The term CC50 denotes the concentration that lowers cell viability or growth by half. A low value points to harm at low concentration. For orientation: inhibition means the drop in the measured response relative to a control, in per cent. A low value points to a response near the control. As a reminder, the IC50 is the concentration that gives 50% inhibition.

Series [1] has as its system Human immunodeficiency virus. The series can be described thus: Specificity against NF-kappaB and Tat proteins assessed by activity in Hela Tet-ON assay. In kind it is functional.
Series [2] in a line: Cytotoxicity by Propidium Iodide staining.
For series [3], the system named is Human immunodeficiency virus. Nature of the series: Ratio of cytotoxic activity to anti HIV activity. The series is classed as functional.
For series [4], the target named is Nuclear factor NF-kappa-B complex (Homo sapiens) (UniProt Q00653+P19838+Q04206). The series can be described thus: Inhibition of TNFalpha activated NF-kappaB mediated transactivation of HIV-1 LTR Luc in 5.1 cells at 100 uM. In kind it is functional, cell-based.
Sequence of Nuclear factor NF-kappa-B complex (Homo sapiens) (P19838 whole entry, looked up): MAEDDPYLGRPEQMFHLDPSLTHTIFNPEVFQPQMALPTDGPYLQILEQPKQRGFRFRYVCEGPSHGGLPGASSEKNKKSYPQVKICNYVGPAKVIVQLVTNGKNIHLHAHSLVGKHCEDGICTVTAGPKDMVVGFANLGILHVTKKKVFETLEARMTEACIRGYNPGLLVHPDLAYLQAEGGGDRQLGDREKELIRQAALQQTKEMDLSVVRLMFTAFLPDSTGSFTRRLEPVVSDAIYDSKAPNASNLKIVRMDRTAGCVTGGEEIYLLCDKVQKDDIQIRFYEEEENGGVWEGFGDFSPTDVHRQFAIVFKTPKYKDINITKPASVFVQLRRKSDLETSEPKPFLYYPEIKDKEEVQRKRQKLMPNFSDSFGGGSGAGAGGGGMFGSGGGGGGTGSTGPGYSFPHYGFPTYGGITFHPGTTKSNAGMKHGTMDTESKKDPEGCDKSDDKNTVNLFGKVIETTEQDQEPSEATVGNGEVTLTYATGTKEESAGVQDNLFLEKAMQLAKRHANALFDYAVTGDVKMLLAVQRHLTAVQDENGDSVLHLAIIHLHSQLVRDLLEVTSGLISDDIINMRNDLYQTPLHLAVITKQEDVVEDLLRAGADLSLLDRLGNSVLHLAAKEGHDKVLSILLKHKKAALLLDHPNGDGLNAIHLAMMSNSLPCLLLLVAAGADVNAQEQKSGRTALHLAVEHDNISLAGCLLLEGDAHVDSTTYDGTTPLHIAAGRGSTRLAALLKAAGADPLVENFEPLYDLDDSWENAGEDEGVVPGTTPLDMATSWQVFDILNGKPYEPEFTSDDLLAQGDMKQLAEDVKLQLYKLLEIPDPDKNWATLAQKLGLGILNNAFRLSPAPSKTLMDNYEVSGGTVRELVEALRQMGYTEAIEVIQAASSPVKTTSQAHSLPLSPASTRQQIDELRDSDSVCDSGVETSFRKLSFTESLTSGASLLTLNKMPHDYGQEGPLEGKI
Sequence of Nuclear factor NF-kappa-B complex (Homo sapiens) (Q00653 whole entry, looked up): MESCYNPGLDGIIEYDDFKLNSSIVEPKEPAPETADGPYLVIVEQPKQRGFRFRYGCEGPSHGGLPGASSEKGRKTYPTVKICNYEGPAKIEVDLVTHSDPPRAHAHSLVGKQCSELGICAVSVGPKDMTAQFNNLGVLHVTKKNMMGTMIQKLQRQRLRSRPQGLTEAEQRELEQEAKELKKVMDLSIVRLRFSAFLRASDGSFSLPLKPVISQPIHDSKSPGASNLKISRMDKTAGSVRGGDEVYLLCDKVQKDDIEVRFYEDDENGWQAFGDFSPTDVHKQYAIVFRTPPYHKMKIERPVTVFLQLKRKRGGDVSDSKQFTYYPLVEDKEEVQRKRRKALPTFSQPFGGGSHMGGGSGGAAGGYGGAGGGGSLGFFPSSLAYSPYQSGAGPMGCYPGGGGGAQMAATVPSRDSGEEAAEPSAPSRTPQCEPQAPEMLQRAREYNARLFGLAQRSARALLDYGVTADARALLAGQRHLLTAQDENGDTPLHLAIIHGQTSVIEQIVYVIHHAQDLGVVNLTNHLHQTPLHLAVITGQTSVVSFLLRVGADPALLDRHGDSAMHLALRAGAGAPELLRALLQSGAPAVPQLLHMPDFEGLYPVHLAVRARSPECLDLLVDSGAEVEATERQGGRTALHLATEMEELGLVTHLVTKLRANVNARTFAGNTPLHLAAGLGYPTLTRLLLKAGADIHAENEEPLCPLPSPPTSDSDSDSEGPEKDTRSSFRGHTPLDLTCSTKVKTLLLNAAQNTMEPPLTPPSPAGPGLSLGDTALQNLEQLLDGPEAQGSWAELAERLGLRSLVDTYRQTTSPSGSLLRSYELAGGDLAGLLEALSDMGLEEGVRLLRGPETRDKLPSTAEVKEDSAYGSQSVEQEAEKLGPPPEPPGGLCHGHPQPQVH
Sequence of Nuclear factor NF-kappa-B complex (Homo sapiens) (Q04206 whole entry, looked up): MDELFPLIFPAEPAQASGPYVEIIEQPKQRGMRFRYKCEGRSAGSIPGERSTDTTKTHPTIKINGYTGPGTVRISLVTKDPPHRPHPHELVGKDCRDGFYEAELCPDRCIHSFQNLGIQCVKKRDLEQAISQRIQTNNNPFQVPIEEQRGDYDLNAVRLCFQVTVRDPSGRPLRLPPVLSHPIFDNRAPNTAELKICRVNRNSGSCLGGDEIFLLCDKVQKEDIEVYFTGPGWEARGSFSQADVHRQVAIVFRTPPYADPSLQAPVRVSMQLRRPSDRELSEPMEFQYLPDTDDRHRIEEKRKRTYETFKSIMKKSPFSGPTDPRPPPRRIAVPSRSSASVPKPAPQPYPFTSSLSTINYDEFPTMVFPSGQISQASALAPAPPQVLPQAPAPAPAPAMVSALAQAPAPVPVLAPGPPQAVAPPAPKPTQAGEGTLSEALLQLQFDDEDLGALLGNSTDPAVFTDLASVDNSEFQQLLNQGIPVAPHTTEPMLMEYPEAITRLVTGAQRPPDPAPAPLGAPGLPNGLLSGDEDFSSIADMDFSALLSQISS
The target in series [5] is T1, Protein Tat (Human immunodeficiency virus type 1 group M subtype B (isolate PCV12)(HIV-1)) (UniProt P04326).
T1 sequence (whole entry): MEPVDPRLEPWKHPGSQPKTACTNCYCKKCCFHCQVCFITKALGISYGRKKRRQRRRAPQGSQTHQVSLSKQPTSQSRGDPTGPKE
The series can be described thus: Inhibition of Tat activity in HeLa cells transfected with Tat-Luc at 100 uM. The series is classed as functional, cell-based.

Series [6] deals with Human immunodeficiency virus. Nature of the series: Inhibition of HIV replication by recombinant virus assay. In kind it is functional, organism-based.

Active and inactive are the calls of the source. The rule behind the calls is not given here.

Take `O=C1O/C(=C\c2ccc3c(c2)OCO3)c2ccccc21`: the result in series [1] was Active. Also, the CC50 in series [2] is 138 µM. Further, in series [3], the “Ratio CC50/IC50” value turned out to be 11.3. The figures for the inhibition in series [4] and in series [5] were 91.8% and 87.2%, respectively. Moreover, the IC50 in series [6] (Human immunodeficiency virus 1) came out at 12.2 µM.
As to `OC1(Cc2ccc(Cl)c(Cl)c2)c2ccccc2C2=NCCCN21` (stereo not drawn), the result in series [1] was inactive. In series [2], this compound yielded a CC50 of 85.2 µM. Also, in series [3], the “Ratio CC50/IC50” value worked out at 3.3. The results for the inhibition in series [4] and in series [5] were 67.7% and 60%, respectively. Moreover, the IC50 in series [6] (Human immunodeficiency virus 1) amounted to 26.1 µM.
For `OC1(Cc2ccc3ccccc3c2)c2ccccc2C2=NCCCN21` (stereo not drawn), in series [1], the result was inactive. Also, the CC50 in series [2] was found to be 81 µM. The “Ratio CC50/IC50” value in series [3] turned out to be 1.3. Moreover, the inhibition in series [4] amounted to 100%; in series [5], 51.2%. The IC50 in series [6] (Human immunodeficiency virus 1) stood at 60.8 µM.
Take `Cn1nc(Cc2ccc3c(c2)OCO3)c2ccccc2c1=O`: in series [1], the result was inactive. In series [2], this compound gave a CC50 of 131 µM. In addition, the “Ratio CC50/IC50” value in series [3] is recorded as 4.8. Besides, the inhibition came to 97.2% in series [4] and 25.5% in series [5]. Further, the IC50 in series [6] (Human immunodeficiency virus 1) turned out to be 27.4 µM.
As to `Oc1nnc(Cc2ccccc2Cl)c2cc(Cl)c(Cl)cc12`, the outcome in series [1] was inactive. In series [2], this compound displayed a 50% cytotoxic concentration (CC50) of more than 147 µM. For the same compound, the “Ratio CC50/IC50” value in series [3] is given as more than 6.7. Also, the inhibition in series [4] was 65.9%; in series [5], 11.2%. In addition, the IC50 in series [6] (Human immunodeficiency virus 1) amounted to 22 µM.
In the case of `Oc1nnc(Cc2ccccc2Cl)c2ccccc12`, the outcome in series [1] was inactive. In series [2], the CC50 was more than 185 µM. Besides, the “Ratio CC50/IC50” value in series [3] is recorded as more than 4.5. In addition, the inhibition in series [4] came out at 67.3%; in series [5] it was 29.8%. The IC50 in series [6] (Human immunodeficiency virus 1) worked out at 41.6 µM.
With `CSc1ccc(CC2(O)c3ccccc3C3=NCCCN32)cc1` (stereo not drawn), the outcome in series [1] was inactive. For the same compound, half-maximal cytotoxicity in series [2] (CC50) was put at 142 µM. For the same compound, in series [3], the “Ratio CC50/IC50” value is recorded as 2.3. In addition, the inhibition in series [4] was found to be 99.8%; in series [5], 13.9%. In addition, the IC50 in series [6] (Human immunodeficiency virus 1) amounted to 61.5 µM.
Regarding `O=c1c2ccccc2c(Cc2ccc(Cl)cc2)nn1-c1ccc([N+](=O)[O-])cc1`, the outcome in series [1] was inactive. Further, it took 96.3 µM to reach half-maximal cytotoxicity in series [2] (CC50). Moreover, the “Ratio CC50/IC50” value in series [3] is given as 1.1. For the same compound, the values for the inhibition in series [4] and in series [5] were 54.8% and 29.6%, respectively. Moreover, in series [6] (Human immunodeficiency virus 1), the IC50 is 89.5 µM.
Regarding `O=C1O/C(=C\c2ccc(Cl)cc2)c2c1cccc2[N+](=O)[O-]`, in series [1], the outcome was Active. In series [2], this compound returned a CC50 of less than 20.7 µM. Also, in series [3], the “Ratio CC50/IC50” value was less than 0.2. Further, the inhibition in series [4] was less than 0%; in series [5], 63.7%. The IC50 in series [6] (Human immunodeficiency virus 1) was 119 µM.
On to `Cn1nc(Cc2cccc3ccccc23)c2ccccc2c1=O`, for which the result in series [1] was Active. In series [2], this compound showed a CC50 of 62.9 µM. The “Ratio CC50/IC50” value in series [3] stood at 5.7. The values for the inhibition in series [4] and in series [5] were 100% and 43.2%, respectively. In addition, the IC50 in series [6] (Human immunodeficiency virus 1) was determined as 11 µM.
In the case of `OC1(Cc2ccc(Cl)cc2Cl)c2ccccc2C2=NCCN21` (stereo not drawn), the outcome in series [1] was inactive. The compound further returned a CC50 in series [2] of 87.5 µM. For the same compound, the “Ratio CC50/IC50” value in series [3] is listed as 6.3. In addition, the values for the inhibition in series [4] and in series [5] were less than 0% and 86.6%, respectively. Further, in series [6] (Human immunodeficiency virus 1), the IC50 worked out at 13.8 µM.
For the compound `OC1(Cc2ccccc2Cl)c2ccccc2C2=NCCCN21` (stereo not drawn), the outcome in series [1] was inactive. Further, in series [2], the CC50 was determined as 78.6 µM. The “Ratio CC50/IC50” value in series [3] was 1.2. In addition, the inhibition in series [4] was 99.7%; in series [5], less than 0%. The IC50 in series [6] (Human immunodeficiency virus 1) was 66.7 µM.
`CSc1ccc(/C=C2\OC(=O)c3ccccc32)cc1`: the outcome in series [1] was Active. In series [2], this compound yielded a CC50 of more than 187 µM. Moreover, the “Ratio CC50/IC50” value in series [3] was more than 8. Besides, the inhibition in series [4] came out at 86.7%; in series [5], 89.7%. In addition, the IC50 in series [6] (Human immunodeficiency virus 1) stood at 23.4 µM.
With `Cc1ccc2c(c1)/C(=C/c1ccccc1Cl)OC2=O`, the outcome in series [1] was inactive. The compound also displayed a CC50 in series [2] of more than 185 µM. Moreover, the “Ratio CC50/IC50” value in series [3] is reported as more than 1.4. The inhibition in series [4] was 71%; in series [5], less than 0%. For the same compound, the IC50 in series [6] turned out to be 133 µM.
With `C=CCn1nc(Cc2ccc(OC)cc2)c2ccccc2c1=O`, the outcome in series [1] was inactive. The CC50 in series [2] was 68.6 µM. Also, the “Ratio CC50/IC50” value in series [3] was found to be 2.3. In addition, the results for the inhibition in series [4] and in series [5] were 50% and 2.9%, respectively. Further, in series [6] (Human immunodeficiency virus 1), the IC50 was 30.5 µM.
With `O=C1O/C(=C\c2ccccc2Cl)c2ccccc21` (stereo in doubt; 1b), the outcome in series [1] was inactive. In series [2], the CC50 was more than 195 µM. The “Ratio CC50/IC50” value in series [3] is more than 8. Moreover, the inhibition was less than 0% in series [4] and 76.8% in series [5]. Also, the IC50 in series [6] is 24.4 µM.
In the case of `CCCCn1nc(Cc2ccc(OC)c(OC)c2)c2ccccc2c1=O`, the outcome in series [1] was Active. In series [2], this compound gave a 50% cytotoxic concentration (CC50) of 70.3 µM. Moreover, the “Ratio CC50/IC50” value in series [3] was determined as 4.4. The inhibition in series [4] was found to be 83%; in series [5] it was 6.7%. The IC50 in series [6] (Human immunodeficiency virus 1) is 16 µM.
Turning to `Oc1nnc(Cc2ccc(Cl)cc2Cl)c2ccccc12`, the outcome in series [1] was inactive. The midpoint of cytotoxicity in series [2], the CC50, lay at 58 µM. Moreover, the “Ratio CC50/IC50” value in series [3] is given as 0.6. Moreover, the inhibition in series [4] amounted to 99%; in series [5] it was 53.9%. Further, in series [6] (Human immunodeficiency virus 1), the IC50 amounted to 96.2 µM.
Turning to `CCn1nc(Cc2ccc(OC)cc2)c2ccccc2c1=O`, the outcome in series [1] was inactive. In series [2], this compound gave a CC50 of 89.5 µM. Moreover, the “Ratio CC50/IC50” value in series [3] is 4. In addition, the inhibition turned out to be 93.5% in series [4] and 14.2% in series [5]. Further, the IC50 in series [6] (Human immunodeficiency virus 1) is 22.3 µM.
Take `Cn1nc(Cc2ccccc2Cl)c2ccccc2c1=O`: in series [1], the outcome was inactive. Besides, the CC50 in series [2] is more than 176 µM. The “Ratio CC50/IC50” value in series [3] is reported as more than 8.2. Moreover, the values for the inhibition in series [4] and in series [5] were 73% and 18.3%, respectively. The IC50 in series [6] (Human immunodeficiency virus 1) is 21.6 µM.
On to `O=c1c2ccccc2c(Cc2ccc(Cl)cc2)nn1-c1ccccc1`, for which the result in series [1] was inactive. Further, in series [2], the CC50 amounted to 67.7 µM. For the same compound, the “Ratio CC50/IC50” value in series [3] was 1.2. Besides, the values for the inhibition in series [4] and in series [5] were 86.4% and less than 0%, respectively. In addition, the IC50 in series [6] (Human immunodeficiency virus 1) was determined as 58.7 µM.
In the case of `OC1(Cc2ccccc2Cl)c2cc(Cl)c(Cl)cc2C2=NCCN21` (stereo not drawn), in series [1], the outcome was Active. Moreover, in series [2], the CC50 came out at 30.1 µM. The Ratio CC50/IC50 in series [3] is 1.3. The figures for the inhibition in series [4] and in series [5] were 100% and 99.6%, respectively. Moreover, the IC50 in series [6] (Human immunodeficiency virus 1) was found to be 22.8 µM.
Take `Cn1nc(Cc2ccc3ccccc3c2)c2ccccc2c1=O`: the outcome in series [1] was Active. Further, the CC50 in series [2] was 57.2 µM. For the same compound, the “Ratio CC50/IC50” value in series [3] came out at 3.5. Moreover, the inhibition in series [4] came out at 99.9%; in series [5], 11.8%. In addition, the half-inhibitory concentration (IC50) in series [6] (Human immunodeficiency virus 1) is 16.6 µM.
